Entries after “also recorded” stand apart in the source; their conditions may differ.
Key:
hippocampal neurons = experiment: Excitotoxic insult in hippocampal neurons (loss of functional activity); format: cell-based; conditions: co-application with excitotoxic insult
From the text: This loss was prevented by the co-application of the compound of Structure 1. Results were confirmatory of the retinal data and extends it into tissues that are more strongly associated with CNS disorders such as Stroke and neurodegenerative diseases. Noted is therapeutic treatment for autism disorders and cognitive decline symptomatology conditions.

ischemic episode = experiment: Therapeutic protocol in stroke (Example 2); format: in vivo, human; conditions: 50 mg/Kg i.v. within 2 hours of onset; outcome within 48 hours; person
Protocol: A person presents with an ischemic episode resulting sudden numbness the face, and left arm, confusion, and trouble speaking. […] Doses of from about 1 to about 100 mg/Kg are noted.

[1] = system: acute slices of rat retinal and brain tissue; experiment: Multi-electrode array electrophysiological screen for neuroprotection against kainate- or NMDA-induced death; format: cell-based; conditions: 30 uM; pretreatment, or cotreatment with an NMDA receptor agonist; slices perfused about 30 min with NMDA or kainate agonists
From the text: One aspect of the present invention usefully employs electrophysiological screening of Structure 1. Particular attention is drawn to an electrophysiological assay that rapidly screens for compounds which are inhibitors that target neuron-specific PDZ domains. Recordings of cellular activity were made from acute slices of rat retinal and brain tissue to examine the effects of Structure 1 on synaptic Kainate/AMPA, NMDARs and to test for protection against excitotoxic insults. Kainate/AMPA and NMDAR components were distinguished pharmacologically. Noted are the selective AMPA-antagonist NBQX and the competitive NMDA-antagonist CPP. A multi-electrode array was used that enabled examination of activity from sixty neurons simultaneously. This array addressed whether a test compound provided neuroprotection against kainate or N-methyl-D-aspartic acid (NMDA)-induced death. Briefly, slices were perfused for prolonged periods (about 30 min) with NMDA or kainate agonists until activity in half of the neurons is lost and responses cannot be rescued by washing out the NMDA or kainate (assumed to be resulting from neuronal death).

[2] = Intrathecal injection in rats, distribution in spinal cord and brain; format: in vivo
Protocol: Intrathecal injection of Structure 1 compound in rats was tested. Rats were prepped for intrathecal injection containing 16 nmol of Structure 1 compound at the level of CV2. 24 hrs following the injection the rats were perfused with 4% PFA and frozen cross-sections of the cord were mounted on glass slides and photographed.

[3] = Uptake in the retina after intravitreal injection of fluorescently tagged compound; format: in vivo
From the text: Uptake in the retina was observed as follows. […] In numerous populations of retinal neurons located in both the ganglion cell (GCL) and inner nuclear layers.

[4] = rats, 16 nmol intrathecal at CV2, 24 hrs after injection

Q: For “CONH2-(Arg)7-Cys-Cys-Lys-Asn-Tyr-Lys-c[-Lys-Thr-Glu(βAla)Val [Structure 1]”, which “permanent loss of functional activity after excitotoxic insult” value (hippocampal neurons) is on record?
A: Its value is “prevented”.

Q: And the “patient outcome after ischemic episode” value (ischemic episode)?
A: Its value is “recovers without significant brain damage”.

Q: And the “prevention of neuronal death / cell death” value [1]?
A: Its value is “provided efficacy and potency in preventing neuronal death; also recorded: prevented cell death”.

Q: And the “accumulation in brain regions after cervical intrathecal injection” value [2, 4]?
A: The value was “accumulate in cells located in the cortex, hippocampus, brainstem and striatum”.

Q: What about the “crossing of pia mater/brain barrier and accumulation in spinal cord neurons” value [2, 4] of the same substance?
A: The value was “crosses the pia mater/brain barrier and selectively accumulates in neurons located within the gray matter of the cord”.

Q: What about the “crossing of pia mater/brain barrier” value ([2]; tagged with a fluorescent marker, localizes in neurons within retina, spinal cord and brain) of the same substance?
A: The value was “readily cross the pia mater/brain barrier”.

Q: What about the “uptake pattern in retina” value ([3]; 1.5-6 nmol, 6 hrs following intravitreal injection) of the same substance?
A: The value was roughly 50%.

Q: What about the “accumulation within ganglion cell axons” value ([3]; intravitreal injection, labeling at the optic nerve head) of the same substance?
A: The value was “selectively accumulated within ganglion cell axons”.

Q: And the “crossing of vitreal/retina barrier” value ([3]; tagged with a fluorescent marker, administered intravitrealy)?
A: The value was “crossed the vitreal/retina barrier”.
